In the supplement of paper PMC10307832:

Each cell line was assayed with CC1CC(=O)N(C2=CN=C(N=C2N1C3CCCC3)NC4=C(C=C(C=C4)C(=O)NC5CCN(CC5)C)OC)C [NPK76-II-72-1] + O=C(c1cc(Cc2n[nH]c(=O)c3ccccc23)ccc1F)N1CCN(C(=O)C2CC2)CC1 [Olaparib] (partner 8 µM) (assay: relative viability (nuclei count vs DMSO), 5 days (fraction); higher = more cells survive). Settings: first compound 0.01 µM.
Procedure, shortened: (§1)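 Cells from lung cancer lines were seeded into 1536-well plates and, one day later, dosed by pin tool. Treatments were either a single drug or a fixed dose of an anchor drug with five library-drug doses (not always all listed) in √10 steps. After 5 days, nuclei were stained in a one-step fixation (final 0.05% Triton X-100, 1% formaldehyde, 1 ug/ml Hoechst) and counted on 4× images, and relative viability is the treated-to-vehicle nuclei ratio, as the median of duplicate plates.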

For NCI-H2087, which relative viability is on record?
The relative viability was 0.532.

With H3255 as the cell line, how does the relative viability read?
The relative viability was 0.531.

How did the relative viability turn out when LOU-NH91 was run?
The relative viability was 0.906.

ChaGo-K-1 was tested. Which relative viability did it give?
The relative viability was 0.417.

Which relative viability does the source give for NCI-H2170 here?
The relative viability was 0.57.

NCI-H2405 was tested. Which relative viability did it give?
Its relative viability is 0.861.

With HOP-62 as the cell line, how does the relative viability read?
The relative viability was 0.389.

Which relative viability does the source give for HCC-44 here?
The relative viability was 0.955.

With LU99A as the cell line, how does the relative viability read?
Its relative viability is 0.259.

For BEN, which relative viability is on record?
The relative viability was 1.01.

Which relative viability does the source give for HARA here?
The relative viability was 0.888.

Which relative viability does the source give for HCC-78 here?
The relative viability was 0.86.

How did the relative viability turn out when NCI-H322M was run?
The relative viability was 0.582.

How did the relative viability turn out when LCLC-97TM1 was run?
The relative viability was 0.357.

A-427 was tested. Which relative viability did it give?
Its relative viability is 0.644.

With NCI-H441 as the cell line, how does the relative viability read?
Its relative viability is 0.476.

How did the relative viability turn out when NCI-H1734 was run?
The relative viability was 0.582.

Which relative viability does the source give for NCI-H460 here?
Its relative viability is 0.441.

For NCI-H2347, which relative viability is on record?
Its relative viability is 0.525.

For NCI-H1395, which relative viability is on record?
Its relative viability is 0.459.

Which relative viability does the source give for 201T here?
Its relative viability is 0.792.

NCI-H1915 was tested. Which relative viability did it give?
Its relative viability is 0.271.

With HCC-827 as the cell line, how does the relative viability read?
Its relative viability is 0.615.

LXF-289 was tested. Which relative viability did it give?
Its relative viability is 0.966.

With NCI-H23 as the cell line, how does the relative viability read?
The relative viability was 0.228.

NCI-H647 was tested. Which relative viability did it give?
Its relative viability is 0.633.

With NCI-H1651 as the cell line, how does the relative viability read?
The relative viability was 0.186.

Same assay, conditions: first compound 0.03162 µM

Which relative viability does the source give for NCI-H2087 here?
Its relative viability is 0.653.

H3255 was tested. Which relative viability did it give?
Its relative viability is 0.552.

Which relative viability does the source give for LOU-NH91 here?
The relative viability was 0.926.

How did the relative viability turn out when ChaGo-K-1 was run?
Its relative viability is 0.401.

NCI-H2170 was tested. Which relative viability did it give?
Its relative viability is 0.572.

Which relative viability does the source give for NCI-H2405 here?
Its relative viability is 0.888.

How did the relative viability turn out when HOP-62 was run?
Its relative viability is 0.351.

How did the relative viability turn out when HCC-44 was run?
Its relative viability is 1.

For LU99A, which relative viability is on record?
The relative viability was 0.244.

BEN was tested. Which relative viability did it give?
The relative viability was 1.14.

For HARA, which relative viability is on record?
Its relative viability is 0.756.

With HCC-78 as the cell line, how does the relative viability read?
Its relative viability is 0.872.

NCI-H322M was tested. Which relative viability did it give?
Its relative viability is 0.828.

LCLC-97TM1 was tested. Which relative viability did it give?
Its relative viability is 0.394.

Which relative viability does the source give for A-427 here?
Its relative viability is 0.772.

With NCI-H441 as the cell line, how does the relative viability read?
Its relative viability is 0.598.

For NCI-H1734, which relative viability is on record?
Its relative viability is 0.72.

How did the relative viability turn out when NCI-H460 was run?
Its relative viability is 0.457.

NCI-H2347 was tested. Which relative viability did it give?
The relative viability was 0.632.

Which relative viability does the source give for NCI-H1395 here?
The relative viability was 0.45.

201T was tested. Which relative viability did it give?
The relative viability was 0.826.

Which relative viability does the source give for NCI-H1915 here?
The relative viability was 0.254.

HCC-827 was tested. Which relative viability did it give?
Its relative viability is 0.649.

With LXF-289 as the cell line, how does the relative viability read?
The relative viability was 1.07.

NCI-H23 was tested. Which relative viability did it give?
The relative viability was 0.29.

For NCI-H647, which relative viability is on record?
Its relative viability is 0.48.

Which relative viability does the source give for NCI-H1651 here?
Its relative viability is 0.168.

Same assay, conditions: first compound 0.1 µM

For NCI-H2087, which relative viability is on record?
The relative viability was 0.548.

For H3255, which relative viability is on record?
The relative viability was 0.561.

LOU-NH91 was tested. Which relative viability did it give?
The relative viability was 0.893.

With ChaGo-K-1 as the cell line, how does the relative viability read?
The relative viability was 0.392.

How did the relative viability turn out when NCI-H2170 was run?
Its relative viability is 0.666.

NCI-H2405 was tested. Which relative viability did it give?
Its relative viability is 0.908.

HOP-62 was tested. Which relative viability did it give?
The relative viability was 0.466.

With HCC-44 as the cell line, how does the relative viability read?
Its relative viability is 0.946.

LU99A was tested. Which relative viability did it give?
Its relative viability is 0.297.

With BEN as the cell line, how does the relative viability read?
Its relative viability is 1.04.

How did the relative viability turn out when HARA was run?
Its relative viability is 0.76.

Which relative viability does the source give for HCC-78 here?
The relative viability was 0.476.

How did the relative viability turn out when NCI-H322M was run?
Its relative viability is 0.623.

Which relative viability does the source give for LCLC-97TM1 here?
Its relative viability is 0.346.

A-427 was tested. Which relative viability did it give?
The relative viability was 0.74.

For NCI-H441, which relative viability is on record?
Its relative viability is 0.648.

How did the relative viability turn out when NCI-H1734 was run?
The relative viability was 0.745.

For NCI-H460, which relative viability is on record?
Its relative viability is 0.514.

NCI-H2347 was tested. Which relative viability did it give?
Its relative viability is 0.612.

How did the relative viability turn out when NCI-H1395 was run?
The relative viability was 0.493.

For 201T, which relative viability is on record?
Its relative viability is 0.836.

NCI-H1915 was tested. Which relative viability did it give?
Its relative viability is 0.262.

With HCC-827 as the cell line, how does the relative viability read?
The relative viability was 0.66.

Which relative viability does the source give for LXF-289 here?
Its relative viability is 1.05.

How did the relative viability turn out when NCI-H23 was run?
The relative viability was 0.316.

For NCI-H647, which relative viability is on record?
The relative viability was 0.755.

NCI-H1651 was tested. Which relative viability did it give?
The relative viability was 0.185.

Same assay, conditions: first compound 0.3162 µM

Which relative viability does the source give for NCI-H2087 here?
Its relative viability is 0.672.

How did the relative viability turn out when H3255 was run?
Its relative viability is 0.483.

How did the relative viability turn out when LOU-NH91 was run?
Its relative viability is 0.785.

For ChaGo-K-1, which relative viability is on record?
Its relative viability is 0.418.

With NCI-H2170 as the cell line, how does the relative viability read?
Its relative viability is 0.381.

With NCI-H2405 as the cell line, how does the relative viability read?
The relative viability was 0.858.

For HCC-44, which relative viability is on record?
The relative viability was 0.935.

For LU99A, which relative viability is on record?
The relative viability was 0.253.

BEN was tested. Which relative viability did it give?
Its relative viability is 1.03.

HCC-78 was tested. Which relative viability did it give?
The relative viability was 0.869.

How did the relative viability turn out when NCI-H322M was run?
The relative viability was 0.878.

How did the relative viability turn out when LCLC-97TM1 was run?
Its relative viability is 0.249.

With A-427 as the cell line, how does the relative viability read?
The relative viability was 0.653.

Which relative viability does the source give for NCI-H441 here?
Its relative viability is 0.589.

With NCI-H1734 as the cell line, how does the relative viability read?
Its relative viability is 0.542.

For NCI-H460, which relative viability is on record?
The relative viability was 0.426.

Which relative viability does the source give for NCI-H2347 here?
The relative viability was 0.508.

With NCI-H1395 as the cell line, how does the relative viability read?
The relative viability was 0.477.

201T was tested. Which relative viability did it give?
Its relative viability is 0.851.

With NCI-H1915 as the cell line, how does the relative viability read?
Its relative viability is 0.253.

Which relative viability does the source give for HCC-827 here?
Its relative viability is 0.608.

Which relative viability does the source give for LXF-289 here?
The relative viability was 1.04.

NCI-H23 was tested. Which relative viability did it give?
The relative viability was 0.255.

Which relative viability does the source give for NCI-H647 here?
The relative viability was 0.46.

Which relative viability does the source give for NCI-H1651 here?
The relative viability was 0.168.

Same assay, conditions: first compound 1 µM

With NCI-H2087 as the cell line, how does the relative viability read?
Its relative viability is 0.626.

H3255 was tested. Which relative viability did it give?
Its relative viability is 0.592.

For LOU-NH91, which relative viability is on record?
Its relative viability is 0.991.

For ChaGo-K-1, which relative viability is on record?
The relative viability was 0.448.

Which relative viability does the source give for NCI-H2170 here?
The relative viability was 0.656.

How did the relative viability turn out when NCI-H2405 was run?
Its relative viability is 0.88.

With HOP-62 as the cell line, how does the relative viability read?
Its relative viability is 0.465.

With HCC-44 as the cell line, how does the relative viability read?
Its relative viability is 0.989.

With LU99A as the cell line, how does the relative viability read?
The relative viability was 0.285.

How did the relative viability turn out when BEN was run?
The relative viability was 1.

Which relative viability does the source give for HARA here?
The relative viability was 0.872.

How did the relative viability turn out when HCC-78 was run?
Its relative viability is 0.85.

With NCI-H322M as the cell line, how does the relative viability read?
Its relative viability is 0.791.

How did the relative viability turn out when LCLC-97TM1 was run?
The relative viability was 0.424.

How did the relative viability turn out when A-427 was run?
The relative viability was 0.869.

Which relative viability does the source give for NCI-H441 here?
The relative viability was 0.573.

NCI-H1734 was tested. Which relative viability did it give?
Its relative viability is 0.667.

For NCI-H460, which relative viability is on record?
Its relative viability is 0.455.

How did the relative viability turn out when NCI-H2347 was run?
Its relative viability is 0.658.

Which relative viability does the source give for NCI-H1395 here?
Its relative viability is 0.466.

With 201T as the cell line, how does the relative viability read?
The relative viability was 0.839.

How did the relative viability turn out when NCI-H1915 was run?
The relative viability was 0.246.

Which relative viability does the source give for HCC-827 here?
Its relative viability is 0.619.

Which relative viability does the source give for LXF-289 here?
Its relative viability is 1.07.

NCI-H23 was tested. Which relative viability did it give?
The relative viability was 0.354.

How did the relative viability turn out when NCI-H647 was run?
Its relative viability is 0.661.

For NCI-H1651, which relative viability is on record?
The relative viability was 0.171.

These cell lines were tested with CC[C@@H]1C(=O)N(C)c2cnc(Nc3ccc(C(=O)NC4CCN(C)CC4)cc3OC)nc2N1C1CCCC1 [BI-2536] + CS(=O)(=O)N1CCN(Cc2cc3nc(-c4cccc5[nH]ncc45)nc(N4CCOCC4)c3s2)CC1 [Pictilisib] (partner 1 µM) in the same assay as above. Settings: first compound 0.01 µM.
Procedure, shortened: as §1

How did the relative viability turn out when NCI-H2087 was run?
The relative viability was 1.
